# Values of other authors as cited in patent publication US20100168247A1, “SOLID COMPOSITES OF A CALCIUM RECEPTOR-ACTIVE COMPOUND” (TEVA PHARMACEUTICAL INDUSTRIES LTD., priority 2006, published 2010).
compound,measurement,setting,value
"C[C@@H](NCCCc1cccc(C(F)(F)F)c1)c1cccc2ccccc12.Cl [cinacalcet, (R)—N-[1-(1-naphthyl)ethyl]-3-[3-(trifluoromethyl)phenyl]propan-1-amine hydrochloride]",solubility,pH 1,about 0.1 mg/ml
same,solubility in water,pH 7,less than 1 μg/ml
